# Reference: the supplement of paper PMC10307832
# Experiments:
# Assay in all cases: relative viability (nuclei count vs DMSO), 5 days (fraction); higher = more cells survive
# [1] = tested on: SK-MES-1
# Summary of the method: (§1)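 Lung cancer cell lines in 1536-well plates were dosed by pin tool the day after seeding, either with one drug alone or with a fixed anchor-drug dose plus five library-drug doses (not always all listed) in √10 steps. After 5 days, cells were fixed and their nuclei stained in one step (final 0.05% Triton X-100, 1% formaldehyde, 1 ug/ml Hoechst), then counted on 4× images. Relative viability is the nuclei count in treated wells divided by that in vehicle wells. Values are medians of duplicate plates.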
# [2] = tested on: NCI-H1651
# Summary of the method: as §1
# [3] = tested on: NCI-H460
# Summary of the method: as §1
# [4] = tested on: LCLC-103H
# Summary of the method: as §1
# [5] = tested on: NCI-H1355
# Summary of the method: as §1
# [6] = tested on: PC-14
# Summary of the method: as §1
# [7] = tested on: NCI-H322M
# Summary of the method: as §1
# [8] = tested on: NCI-H520
# Summary of the method: as §1
# [9] = tested on: NCI-H727
# Summary of the method: as §1
# [10] = tested on: RERF-LC-KJ
# Summary of the method: as §1
# [11] = tested on: NCI-H596
# Summary of the method: as §1
# [12] = tested on: NCI-H1915
# Summary of the method: as §1
# [13] = tested on: NCI-H661
# Summary of the method: as §1
# [14] = tested on: LXF-289
# Summary of the method: as §1
# [15] = tested on: SW 900
# Summary of the method: as §1
# [16] = tested on: NCI-H1563
# Summary of the method: as §1
# [17] = tested on: NCI-H3122
# Summary of the method: as §1
# [18] = tested on: NCI-H1755
# Summary of the method: as §1
# [19] = tested on: NCI-H2347
# Summary of the method: as §1
# [20] = tested on: NCI-H441
# Summary of the method: as §1
smiles,measurement,setting,value
Nc1ccn([C@@H]2O[C@H](CO)[C@@H](O)[C@@H]2O)c(=O)n1 [Cytarabine] + COc1cc2c(Oc3ccc(NC(=O)C4(C(=O)Nc5ccc(F)cc5)CC4)cc3F)ccnc2cc1OCCCN1CCOCC1 [Foretinib] (partner 0.25 µM),relative viability,[1]; first compound 0.005 µM,0.763
same,relative viability,[1]; first compound 0.01581 µM,0.704
same,relative viability,[1]; first compound 0.05 µM,0.457
same,relative viability,[1]; first compound 0.1581 µM,0.336
same,relative viability,[1]; first compound 0.5 µM,0.304
same,relative viability,[2]; first compound 0.005 µM,0.769
same,relative viability,[2]; first compound 0.01581 µM,0.808
same,relative viability,[2]; first compound 0.05 µM,0.723
same,relative viability,[2]; first compound 0.1581 µM,0.583
same,relative viability,[2]; first compound 0.5 µM,0.372
same,relative viability,[3]; first compound 0.005 µM,1.05
same,relative viability,[3]; first compound 0.01581 µM,0.837
same,relative viability,[3]; first compound 0.05 µM,0.492
same,relative viability,[3]; first compound 0.1581 µM,0.0445
same,relative viability,[3]; first compound 0.5 µM,0.0401
same,relative viability,[4]; first compound 0.005 µM,0.849
same,relative viability,[4]; first compound 0.01581 µM,0.817
same,relative viability,[4]; first compound 0.05 µM,0.96
same,relative viability,[4]; first compound 0.1581 µM,0.604
same,relative viability,[4]; first compound 0.5 µM,0.57
same,relative viability,[5]; first compound 0.005 µM,0.976
same,relative viability,[5]; first compound 0.01581 µM,0.912
same,relative viability,[5]; first compound 0.05 µM,0.911
same,relative viability,[5]; first compound 0.1581 µM,0.501
same,relative viability,[5]; first compound 0.5 µM,0.444
same,relative viability,[6]; first compound 0.005 µM,0.808
same,relative viability,[6]; first compound 0.01581 µM,0.914
same,relative viability,[6]; first compound 0.05 µM,1.02
same,relative viability,[6]; first compound 0.1581 µM,0.536
same,relative viability,[6]; first compound 0.5 µM,0.349
same,relative viability,[7]; first compound 0.005 µM,0.827
same,relative viability,[7]; first compound 0.01581 µM,0.761
same,relative viability,[7]; first compound 0.05 µM,0.677
same,relative viability,[7]; first compound 0.1581 µM,0.464
same,relative viability,[7]; first compound 0.5 µM,0.336
same,relative viability,[8]; first compound 0.005 µM,0.739
same,relative viability,[8]; first compound 0.01581 µM,0.795
same,relative viability,[8]; first compound 0.05 µM,0.974
same,relative viability,[8]; first compound 0.1581 µM,0.621
same,relative viability,[8]; first compound 0.5 µM,0.589
same,relative viability,[9]; first compound 0.005 µM,0.656
same,relative viability,[9]; first compound 0.01581 µM,0.681
same,relative viability,[9]; first compound 0.05 µM,0.597
same,relative viability,[9]; first compound 0.1581 µM,0.488
same,relative viability,[9]; first compound 0.5 µM,0.397
same,relative viability,[10]; first compound 0.005 µM,0.855
same,relative viability,[10]; first compound 0.01581 µM,0.787
same,relative viability,[10]; first compound 0.05 µM,0.735
same,relative viability,[10]; first compound 0.1581 µM,0.545
same,relative viability,[10]; first compound 0.5 µM,0.469
same,relative viability,[11]; first compound 0.005 µM,0.923
same,relative viability,[11]; first compound 0.01581 µM,0.723
same,relative viability,[11]; first compound 0.05 µM,0.542
same,relative viability,[11]; first compound 0.1581 µM,0.44
same,relative viability,[11]; first compound 0.5 µM,0.336
same,relative viability,[12]; first compound 0.005 µM,1.11
same,relative viability,[12]; first compound 0.01581 µM,1.02
same,relative viability,[12]; first compound 0.05 µM,1.01
same,relative viability,[12]; first compound 0.1581 µM,0.771
same,relative viability,[12]; first compound 0.5 µM,0.757
same,relative viability,[13]; first compound 0.005 µM,0.93
same,relative viability,[13]; first compound 0.01581 µM,0.942
same,relative viability,[13]; first compound 0.05 µM,0.884
same,relative viability,[13]; first compound 0.1581 µM,0.68
same,relative viability,[13]; first compound 0.5 µM,0.519
same,relative viability,[14]; first compound 0.005 µM,0.939
same,relative viability,[14]; first compound 0.01581 µM,0.961
same,relative viability,[14]; first compound 0.05 µM,0.749
same,relative viability,[14]; first compound 0.1581 µM,0.412
same,relative viability,[14]; first compound 0.5 µM,0.299
same,relative viability,[15]; first compound 0.005 µM,0.688
same,relative viability,[15]; first compound 0.01581 µM,0.569
same,relative viability,[15]; first compound 0.05 µM,0.329
same,relative viability,[15]; first compound 0.1581 µM,0.21
same,relative viability,[15]; first compound 0.5 µM,0.114
same,relative viability,[16]; first compound 0.005 µM,0.869
same,relative viability,[16]; first compound 0.01581 µM,0.875
same,relative viability,[16]; first compound 0.05 µM,0.869
same,relative viability,[16]; first compound 0.1581 µM,0.846
same,relative viability,[16]; first compound 0.5 µM,0.73
same,relative viability,[17]; first compound 0.005 µM,0.887
same,relative viability,[17]; first compound 0.01581 µM,0.805
same,relative viability,[17]; first compound 0.05 µM,0.777
same,relative viability,[17]; first compound 0.1581 µM,0.509
same,relative viability,[17]; first compound 0.5 µM,0.344
same,relative viability,[18]; first compound 0.005 µM,0.962
same,relative viability,[18]; first compound 0.01581 µM,0.886
same,relative viability,[18]; first compound 0.05 µM,0.736
same,relative viability,[18]; first compound 0.1581 µM,0.387
same,relative viability,[18]; first compound 0.5 µM,0.356
same,relative viability,[19]; first compound 0.005 µM,1.32
same,relative viability,[19]; first compound 0.01581 µM,1.43
same,relative viability,[19]; first compound 0.05 µM,0.806
same,relative viability,[19]; first compound 0.1581 µM,0.463
same,relative viability,[19]; first compound 0.5 µM,0.343
same,relative viability,[20]; first compound 0.005 µM,0.841
same,relative viability,[20]; first compound 0.01581 µM,0.856
same,relative viability,[20]; first compound 0.05 µM,1.05
same,relative viability,[20]; first compound 0.1581 µM,0.661
same,relative viability,[20]; first compound 0.5 µM,0.4
